From patent publication US20230146455A1, “TREATMENT OF INFLAMMATORY DISEASES WITH PEPTIDES AND PHARMACEUTICAL COMPOSITIONS” (Yuyu Pharma, Inc., priority 2020, published 2023)
Several values for one entry are separate records, joined by “and”; a condition that tells them apart may be missing. Equal entries are not always repeated. Where a SMILES comes first, the peptide text is derived from it. [ ]: non-standard residue; d: D form. Hyp = O=C(O)[C@@H]1C[C@@H](O)CN1

Test system: IL-1 alpha
Test: Example 9 Luminex, LPS hPBMCs: IL-1 alpha
Assay type: cell-based, human
Details: for Concentration / conc/live cell: IL-1 alpha, replicates and Mean
Description: Treatment Human PBMCs were pretreated with YY-101, YDE-011 and YDE-043 or reference compound; Xiidra® at various concentration (ranging from 1 nM to 100 uM) for 2 h before stimulation. An equal volume of 0.5% DMSO was used as a vehicle control. Then, the cells were treated with LPS at 5 ug/ml. The supernatants from treated cells were harvested at 24 h and placed in a 96 well for Luminex cytokine & chemokine profiling using a Luminex 200 multiplex assay (Luminex; R&D system, USA).
The main study arm with triplicate wells per group in a 24-well plate: • 1. Blank • 2. PBMC: 0.5% DMSO • 3. PBMC+LPS (5 ug/ml) • 4. PBMC+YY-101 100 uM • 5. PBMC+YY-101 10 uM • 6. PBMC+YY-101 1 uM • 7. PBMC+YY-101 0.1 uM • 8. PBMC+YY-101 0.01 uM • 9. PBMC+LPS (5 ug/ml)+Xiidra®100 uM • 10. PBMC+LPS (5 ug/ml)+Xiidra® 10 uM • 11. PBMC+LPS (5 ug/ml)+Xiidra® 1 uM • 12. PBMC+LPS (5 ug/ml)+Xiidra®0.1 uM • 13. PBMC+LPS (5 ug/ml)+Xiidra®0.01 uM • 14. PBMC+LPS (5 ug/ml)+Xiidra®0.001 uM • 15. PBMC+LPS (5 ug/ml)+YY-101 100 uM • 16. PBMC+LPS (5 ug/ml)+YY-101 10 uM • 17. PBMC+LPS (5 ug/ml)+YY-101 1 uM • 18. PBMC+LPS (5 ug/ml)+YY-101 0.1 uM • 19. PBMC+LPS (5 ug/ml)+YY-101 0.01 uM • 20. PBMC+LPS (5 ug/ml)+YY-101 0.001 uM • 21. PBMC+LPS (5 ug/ml)+YDE-011 100 uM • 22. PBMC+LPS (5 ug/ml)+YDE-011 10 uM • 23. PBMC+LPS (5 ug/ml)+YDE-011 1 uM • 24. PBMC+LPS (5 ug/ml)+YDE-011 0.1 uM • 25. PBMC+LPS (5 ug/ml)+YDE-011 0.01 uM • 26. PBMC+LPS (5 ug/ml)+YDE-011 0.001 uM • 27. PBMC+LPS (5 ug/ml)+YDE-043 100 uM • 28. PBMC+LPS (5 ug/ml)+YDE-043 10 uM • 29. PBMC+LPS (5 ug/ml)+YDE-043 1 uM • 30. PBMC+LPS (5 ug/ml)+YDE-043 0.1 uM • 31. PBMC+LPS (5 ug/ml)+YDE-043 0.01 uM • 32. PBMC+LPS (5 ug/ml)+YDE-043 0.001 uM
Multiplex assay was used to measure 30 cytokines and chemokines. The 1:2, 1:10 and 1:200 diluted cell supernatant and serial dilution of the standard were dispensed into a 96 well plate at 50 ul/well. Then, the pre-mixed cocktail of antibody-coated magnetic beads was dispensed at 50 ul/well and incubated at room temperature for 2 h in a horizontal orbital microplate shaker at 800±500 rpm. The beads were washed using a magnetic device to prevent loss. The biotin-antibody was dispensed in 50 ul of each well and incubated at room temperature for 1 h in a shaker at 800±500 rpm. After washing, streptavidin-PE was added at 50 ul/well and incubated at room temperature for 30 min in a shaker under the same conditions. Finally, after washing, wash buffer (100 ul/well) was added to the plate and incubated in a shaker for 2 min. The Luminex™ 200 setting were set according to the manufacturer's protocol. The data was calculated with a standard five-parameter logistic nonlinear regression analysis of the data (xPonent software 4.2, USA). The levels of cytokine/chemokine are normalized to the live cell counts (1×10^5 cells/mL) and presented as concentrations per mL (pg/mL or ng/mL).

[1] = PBMC + LPS(5 ug/ml) + YY101 0.001 uM
[2] = PBMC + LPS(5 ug/ml) + YY101 0.001 uM, mean
[3] = PBMC + LPS(5 ug/ml) + YY101 0.01 uM
[4] = PBMC + LPS(5 ug/ml) + YY101 0.01 uM, mean
[5] = PBMC + LPS(5 ug/ml) + YY101 0.1 uM
[6] = PBMC + LPS(5 ug/ml) + YY101 0.1 uM, mean
[7] = PBMC + LPS(5 ug/ml) + YY101 1 uM
[8] = PBMC + LPS(5 ug/ml) + YY101 1 uM, mean
[9] = PBMC + LPS(5 ug/ml) + YY101 10 uM
[10] = PBMC + LPS(5 ug/ml) + YY101 10 uM, mean
[11] = PBMC + LPS(5 ug/ml) + YY101 100 uM
[12] = PBMC + LPS(5 ug/ml) + YY101 100 uM, mean
[13] = PBMC + YY101 0.01 uM (second group so labelled), no LPS
[14] = PBMC + YY101 0.01 uM (second group so labelled), no LPS, mean
[15] = PBMC + YY101 0.01 uM, no LPS, mean
[16] = PBMC + YY101 1 uM, no LPS, mean
[17] = PBMC + YY101 10 uM, no LPS, mean
[18] = PBMC + YY101 100 uM, no LPS, mean

Structure (SMILES): CC(C)C[C@H](NC(=O)CNC(=O)[C@H](CC(=O)O)NC(=O)[C@H](CCC(N)=O)NC(=O)CNC(=O)[C@@H]1C[C@@H](O)CN1)C(=O)N[C@@H](C)C(=O)NCC(=O)N1CCC[C@H]1C(=O)N[C@@H](CCCCN)C(=O)O [YY-101] (H-[Hyp]GQDGLAGPK-OH; N-terminus and C-terminus assumed)
- Concentration [1]: 426.2 pg/mL and 461.9 pg/mL and 419.9 pg/mL
- conc/live cell [1]: 74.8 pg/10^5 and 65.1 pg/10^5 and 63.6 pg/10^5
- Concentration [2]: 436.0 pg/mL
- conc/live cell [2]: 67.8 pg/10^5
- Concentration [3]: 506.1 pg/mL and 475.9 pg/mL and 484.7 pg/mL
- conc/live cell [3]: 79.1 pg/10^5 and 79.3 pg/10^5 and 79.5 pg/10^5
- Concentration [4]: 488.9 pg/mL
- conc/live cell [4]: 79.3 pg/10^5
- Concentration [5]: 491.3 pg/mL and 481.8 pg/mL and 482.5 pg/mL
- conc/live cell [5]: 79.2 pg/10^5 and 92.6 pg/10^5 and 77.8 pg/10^5
- Concentration [6]: 485.2 pg/mL
- conc/live cell [6]: 83.2 pg/10^5
- Concentration [7]: 451.2 pg/mL and 427.3 pg/mL and 434.3 pg/mL
- conc/live cell [7]: 71.6 pg/10^5 and 60.2 pg/10^5 and 70.0 pg/10^5
- Concentration [8]: 437.6 pg/mL
- conc/live cell [8]: 67.3 pg/10^5
- Concentration [9]: 473.3 pg/mL and 470.7 pg/mL and 483.6 pg/mL
- conc/live cell [9]: 78.9 pg/10^5 and 73.6 pg/10^5 and 63.6 pg/10^5
- Concentration [10]: 475.9 pg/mL
- conc/live cell [10]: 72.0 pg/10^5
- Concentration [11]: 656.9 pg/mL and 616.5 pg/mL and 614.2 pg/mL
- conc/live cell [11]: 104.3 pg/10^5 and 99.4 pg/10^5 and 122.8 pg/10^5
- Concentration [12]: 629.2 pg/mL
- conc/live cell [12]: 108.8 pg/10^5
- Concentration [13]: 1.0 pg/mL and 5.3 pg/mL
- conc/live cell [13]: 0.2 pg/10^5 and 0.9 pg/10^5
- Concentration [14]: 3.1 pg/mL
- conc/live cell [14]: 0.6 pg/10^5
- Concentration (PBMC + YY101 0.01 uM, no LPS): 1.0 pg/mL and 5.3 pg/mL
- conc/live cell (PBMC + YY101 0.01 uM, no LPS): 0.2 pg/10^5 and 1.1 pg/10^5
- Concentration [15]: 3.1 pg/mL
- conc/live cell [15]: 0.6 pg/10^5
- Concentration (PBMC + YY101 1 uM, no LPS): 5.3 pg/mL
- conc/live cell (PBMC + YY101 1 uM, no LPS): 1.0 pg/10^5
- Concentration [16]: 5.3 pg/mL
- conc/live cell [16]: 1.0 pg/10^5
- Concentration (PBMC + YY101 10 uM, no LPS): 31.7 pg/mL and 7.1 pg/mL
- conc/live cell (PBMC + YY101 10 uM, no LPS): 5.0 pg/10^5 and 1.2 pg/10^5
- Concentration [17]: 19.4 pg/mL
- conc/live cell [17]: 3.1 pg/10^5
- Concentration (PBMC + YY101 100 uM, no LPS): 10.4 pg/mL and 5.3 pg/mL
- conc/live cell (PBMC + YY101 100 uM, no LPS): 1.6 pg/10^5 and 0.8 pg/10^5
- Concentration [18]: 7.9 pg/mL
- conc/live cell [18]: 1.2 pg/10^5
- LPS-induced IL-1a levels (in words) (at 100.iM, LPS 5 ug/mL 24 hrs): further increased
